Results: publication PMC9376946, “Peptide-RNA Coacervates as a Cradle for the Evolution of Folded Domains” (Journal of the American Chemical Society, 2022)

Legend:
polyU = assay: W-band echo intensity and echo decay of PA-12 with polyU; type: binding
Method: For pulse EPR measurements, 5–6 μL of peptide in D2O with 20% glycerol-d8 was introduced into a quartz capillary of 0.9 mm i.d. and 1.1 mm o.d. and sealed with Critoseal at one end. The samples with polyU (and thus, the potential for coacervates) were flash-frozen in liquid nitrogen after incubating at room temperature for 15–20 min. Samples without polyU were directly inserted into the spectrometer at 25 K.
Pulse EPR measurements were carried out at the W band (94.9 GHz) on a home-built spectrometer at 25 K.[22]−[24] Echo intensities were measured with a Hahn echo sequence (π/2νobs – τ – πνobs – τ – echo) using π/2 and π pulses of 20–25 ns and 40–50 ns, respectively, and τ = 500 ns. Echo decays were measured under the same conditions with an initial τ value of 500 ns. DEER measurements were recorded using the four-pulse DEER sequence (π/2νobs – τ1 – πνobs – (τ1 + t) – πνpump – (τ2-t) – πνobs – τ2 – echo)[25],[26] with a chirp pump pulse[23] using eight-step phase cycling and monitoring the echo intensity as a function of increasing t. […] The DEER data were analyzed using the DeerAnalysis 2018[27] program with Tikhonov regularization[28] and also verified with DEERNet.[29] […] The calculated distance distributions were obtained from mtsslSuite[30] using maleimide TEMPO (M-TEMPO) as the ligand, and 200 rotamer conformations were generated using clash treatment set to “loose”. […]

PA dimer (PA2) = assay: DEER of singly labeled peptides in solution (dimerization); type: binding
Method: Lyophilized, spin-labeled peptides were dissolved in Milli-Q water and centrifuged at 4000 rpm for 10 min to remove insoluble aggregates. The soluble fractions were used to prepare stock solutions of 250–500 μM peptide. Labeled peptide concentrations were determined by comparing the area under the curve of the EPR signal against that of standard solutions of 10–285 μM TEMPO. For the EPR measurements in D2O, 200 μL of the stock solution was lyophilized and re-dissolved in D2O. The concentration of the unlabeled peptide stock solutions was determined using the bicinchoninic acid assay (Thermo Fisher Scientific) and ranged from 0.8 to 1.2 mM peptide. […]

Question: With “RIRRASVEELTCVPGIGPRLARRILERLA [PA-12, Precursor-Arg peptide in which position 12 has been modified with a cysteine and attached to an M-TEMPO spin label]” as the sequence, how does the echo signal remaining (polyU; 150 μM PA-12, 0.5 mg/mL polyU (plateau), relative to no polyU) read?
Answer: The echo signal remaining was 8%.

Question: What about the fast-decaying echo component (polyU; 1 mg/mL polyU, 80% spin dilution, final PA 150 μM) of the same sequence?
Answer: Its fast-decaying echo component is “the fast-decaying component became clearly visible”.

Question: And the “DEER modulation depth (Δ)” value (PA dimer (PA2); 30 μM, without polyU)?
Answer: Its value is 2%.

Question: What about the “inter-monomer distances upon spin dilution” value (PA dimer (PA2); about 10% spin-labeled peptide, 200 μM total PA) of the same sequence?
Answer: The value was “inter-monomer distances practically disappear”.
